Source: patent US5006515A, “Pharmaceuticals, phosphorus-containing 2-isoxazolines and isoxazoles contained therein” (Hoechst Aktiengesellschaft, priority 1987, dated 1991)

Legend:
[1] = tested on: antibodies against tetanus toxoid; experiment: Antibody response of the mouse to tetanus toxoid (ELISA); format: in vivo, female NMRI mice; conditions: 20-day value
Method: (§1) Groups each containing 5 female NMRI mice with a body weight of 18 to 20 g were formed, and each of the animals received either intravenous administration of 10^8 heat-killed E coli bacteria or 300 Lf (limes of flocculation) of tetanus toxoid. Oral administration of the test substance in physiological saline (PBS) in doses of 5, 10, 20, 40 or 80 mg/kg, or of the pure vehicle (control groups), was carried out at the same time as administration of the antigen. After 10 and 20 days, blood was taken from the retroorbital venous plexus of the mice and, in the sera obtained therefrom, the IgG and IgM antibodies against E. coli organisms and tetanus toxoid were determined with the aid of the ELISA technique known to those skilled in the art, using homologous lipopolysaccharide from E. coli and tetanus toxoid, respectively, as antigen. The magnitude of the extinctions measured in the photometer is a measure of the amount of antibodies formed.

[2] = tested on: Staphylococcus aureus; experiment: Staphylococcus aureus infection of immunosuppressed mice; format: in vivo, female B6D2F1 mice; conditions: up to day 45
Source text: It is known that distinct immunosuppression can be induced in experimental animals by multiple administration of a cytostatic and is expressed by an increased susceptibility to infection with a drastic rise in mortality. […] Another group of infected animals which had not, however, been immunosuppressed by pretreatment with ADM was included as negative control. The immunosuppressed animals in the three active product groups received, on 4 consecutive days starting one day before the infection, the test substance, with intraperitoneal doses each of 0.1, 1 or 10 mg/kg being administered. Each experimental group comprised 20 animals.

[3] = target: leucine aminopeptidase; experiment: Inhibition of leucine aminopeptidase; format: biochemical; conditions: substrate L-leucine 4-nitroanilide
Method: (§2) The activity of the enzyme aminopeptidase B was determined photometrically using the substrate L-lysine 2-naphthylamide at room temperature. […] In the same way, the inhibition of leucine aminopeptidase was investigated using L-leucine 4-nitroanilide as enzyme substrate. The IC50 values are compiled in Table 6.

[4] = target: aminopeptidase B (Homo sapiens, UniProt Q9H4A4); experiment: Inhibition of aminopeptidase B; format: biochemical; conditions: substrate L-lysine 2-naphthylamide, room temperature; read-out: Aminopeptidase B IC50 (converted)
Method: as §2

[5] = tested on: Salmonella typhimurium; experiment: Chronic Salmonella typhimurium infection in the mouse; format: in vivo, female NMRI mice; conditions: 10 × 5 mg/kg i.p.; day 22
Method: Female NMRI mice (20 animals/group) were infected by intravenous administration of 5×10^3 Salmonella typhimurium organisms. The animals subsequently developed a chronic infection which was characterized by persistent bacterial colonization of the organs, such as the liver and the spleen, with necrosis. The test substance was administered intraperitoneally in a dose of 5 mg/kg at intervals of two days from day 3 to day 21 after infection. The animals in a control group received only the vehicle. On day 22 after the infection, the mortality in both experimental groups was determined, and the organs of the animals which survived were examined for organisms and necrosis.

[6] = tested on: antibodies against E. coli organisms; experiment: Antibody response of the mouse to dead E. coli organisms (ELISA); format: in vivo, female NMRI mice; conditions: for Antibody response to dead E. coli organisms, IgM: 10-day value; for Antibody response to dead E. coli organisms, IgG: 20-day value
Method: as §1

[7] = tested on: B16 melanoma; experiment: Stimulation of defenses against B16 melanoma in the mouse; format: in vivo, female C57B1/6 mice; conditions: intervals of 2 days, day 4 to day 100
Source text: A primary tumor was generated with 2×10^5 live B16 melanoma cells in female C57B1/6 mice with a body weight of 18 to 20 g and, after having grown to a diameter of 0.65 cm, was removed surgically. The animals subsequently died of metastases in the lung. The investigation now was of whether the mean survival time after removal of the primary tumor, that is to say the time at which 50% of the animals are still alive, can prolonged by intraperitoneal treatment with the compounds of the formula I. For this purpose, after amputation of the primary tumor, the mice were divided into groups each containing 10 animals and were treated with i.p. doses each of 1.25 or 2.5 mg/kg test substance at intervals of 2 days from day 4 to day 100. The animals in the control group received merely the pure vehicle PBS (physiological saline) in the same therapeutic regimen.

aminopeptidase B, sequence (Q9H4A4 whole entry, species assumed): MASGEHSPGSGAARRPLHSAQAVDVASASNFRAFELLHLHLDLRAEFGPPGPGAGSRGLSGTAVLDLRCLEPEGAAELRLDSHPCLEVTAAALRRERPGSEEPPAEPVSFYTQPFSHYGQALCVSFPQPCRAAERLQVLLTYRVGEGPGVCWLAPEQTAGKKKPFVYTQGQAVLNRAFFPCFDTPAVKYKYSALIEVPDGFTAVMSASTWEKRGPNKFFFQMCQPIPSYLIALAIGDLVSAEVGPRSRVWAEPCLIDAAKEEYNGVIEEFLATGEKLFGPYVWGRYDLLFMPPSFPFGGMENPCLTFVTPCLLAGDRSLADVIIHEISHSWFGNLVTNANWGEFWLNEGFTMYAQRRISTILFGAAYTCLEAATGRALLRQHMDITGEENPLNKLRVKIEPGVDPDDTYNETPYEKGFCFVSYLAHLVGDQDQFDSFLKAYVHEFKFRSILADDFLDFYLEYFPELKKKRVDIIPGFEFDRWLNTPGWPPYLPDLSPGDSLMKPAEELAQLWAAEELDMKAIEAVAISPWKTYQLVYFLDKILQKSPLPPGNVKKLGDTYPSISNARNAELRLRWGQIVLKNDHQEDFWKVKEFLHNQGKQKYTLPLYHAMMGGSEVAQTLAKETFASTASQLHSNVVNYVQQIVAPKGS

O=P(O)(O)C1CC(c2ccccc2)=NO1 (racemic) [Example 34, 3-Phenyl-2-isoxazolin-5-ylphosphonic acid]
Antibody response to tetanus toxoid, IgG ([1]; 5 mg/kg 1 × p.o.): 865 ± 182 mE492nm
Antibody response to tetanus toxoid, IgG ([1]; 10 mg/kg 1 × p.o.): 1213 ± 255 mE492nm
Antibody response to tetanus toxoid, IgG ([1]; 20 mg/kg 1 × p.o.): 1852 ± 261 mE492nm
Antibody response to tetanus toxoid, IgG ([1]; 40 mg/kg 1 × p.o.): 1357 ± 348 mE492nm
Antibody response to tetanus toxoid, IgG ([1]; 80 mg/kg 1 × p.o.): 1154 ± 232 mE492nm
Mortality ([2]; 0.1 mg/kg 4 × i.p.): 5/20
Mortality ([2]; 1.0 mg/kg 4 × i.p.): 8/20
Mortality ([2]; 10.0 mg/kg 4 × i.p.): 8/20
Leucine aminopeptidase IC50 [3]: 24 μug/ml
IC50 [4]: 99.1 µM
% of surviving animals with liver necroses [5]: 58%
% of surviving animals with organism-positive livers [5]: 67%
% of surviving animals with severe liver necroses [5]: 42%
% of surviving animals with spleen necroses [5]: 0%
Mortality [5]: 8/20
Antibody response to dead E. coli organisms, IgM ([6]; 5 mg/kg 1 × p.o.): 1217 ± 264 mE492nm
Antibody response to dead E. coli organisms, IgG ([6]; 5 mg/kg 1 × p.o.): 1377 ± 324 mE492nm
Antibody response to dead E. coli organisms, IgM ([6]; 10 mg/kg 1 × p.o.): 1411 ± 179 mE492nm
Antibody response to dead E. coli organisms, IgG ([6]; 10 mg/kg 1 × p.o.): 1663 ± 191 mE492nm
Antibody response to dead E. coli organisms, IgM ([6]; 20 mg/kg 1 × p.o.): 1657 ± 231 mE492nm
Antibody response to dead E. coli organisms, IgG ([6]; 20 mg/kg 1 × p.o.): 1951 ± 468 mE492nm
Antibody response to dead E. coli organisms, IgM ([6]; 40 mg/kg 1 × p.o.): 1523 ± 288 mE492nm
Antibody response to dead E. coli organisms, IgG ([6]; 40 mg/kg 1 × p.o.): 2434 ± 312 mE492nm
Antibody response to dead E. coli organisms, IgM ([6]; 80 mg/kg 1 × p.o.): 1459 ± 208 mE492nm
Antibody response to dead E. coli organisms, IgG ([6]; 80 mg/kg 1 × p.o.): 2217 ± 273 mE492nm
% survival after 100 days ([7]; 1.25 mg/kg i.p.): 20%
Mean survival time ([7]; 1.25 mg/kg i.p.): 41 days
% survival after 100 days ([7]; 2.50 mg/kg i.p.): 30%
Mean survival time ([7]; 2.50 mg/kg i.p.): 43 days
